This series can be described thus: gradient 5% acetonitrile 3 min, to 50% in 2 min, to 85% in 15 min, held 3 min, 100 µL/min. Conditions: column: Zorbax Extend-C18 2.1 x 50 mm; eluents: water / acetonitrile, 0.1% formic acid. In short, it runs like this: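 Data were gathered over 3 months by HPLC coupled to a quadrupole time-of-flight mass spectrometer, operated in positive and negative ionization mode. Mixtures of ~100 pure standards ran on a Zorbax Extend-C18 column (2.1 × 50 mm, 1.8 μm) at 100 μL/min, with water and acetonitrile each containing 0.1% formic acid and dead and dwell volumes of 40 μL and 900 μL. Retention time was read from adduct peaks picked by computer and checked manually.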
In turn, `COc1ccc(CN2CCc3nc(N4CCN(c5ccccc5F)CC4)ncc3C2)cc1` gave an RP-LC retention time of 773 s.

In the case of `COc1ccc(Cl)cc1NS(=O)(=O)c1ccc2c(c1)C(=O)N(C)c1ncccc1O2`, the RP-LC retention time came to 958 s.

For `CCN1C(=O)C2(CCN(S(=O)(=O)c3ccc(C)c(Cl)c3)CC2)c2ccccc21`, the RP-LC retention time was 1170 s.

As to `O=C(Nc1cn(-c2ccc(C(=O)N3CCN(c4ccccc4)CC3)cc2)cn1)C1CC1`, the RP-LC retention time amounted to 728 s.

For the compound `CCc1ccc(CNC(=O)C2CCc3nc(N4CCOCC4)ncc3C2)cc1` (stereo not given), the RP-LC retention time was found to be 802 s.

The compound `Cc1ccc(Nc2nc3ccncc3n(Cc3ccccc3)c2=O)cc1Cl` displayed an RP-LC retention time of 898 s.

In turn, `O=C(O)CCn1nnc2ccccc2c1=O` came in with an RP-LC retention time of 606 s.

With `O=C(CCc1nnn2c1CN(C(=O)Nc1ccccc1F)CC2)NC1CC1`, the RP-LC retention time was determined as 618 s.

As to `Cc1ccc(C)c(N2CCN(S(=O)(=O)c3ccc(-c4c(C)noc4C)cc3)CC2)c1`, the RP-LC retention time amounted to 1250 s.

For `CCN1C(=O)CCc2cc(NC(=O)C3CCC3)ccc21`, the RP-LC retention time stood at 691 s.

On to `CCCn1cc(C(=O)NCCOC)c(S(=O)(=O)N2CCN(c3ccccc3OCC)CC2)n1`, for which the RP-LC retention time amounted to 959 s.

`COC(=O)c1ccc2c(=O)n(-c3cc(OC)cc(OC)c3)c(N3CCN(C(C)C)CC3)nc2c1`: the RP-LC retention time turned out to be 668 s.

In the case of `CCc1cc(=O)n(CC(=O)Nc2ccc(Cl)cc2)c(N)n1`, the RP-LC retention time amounted to 618 s.

`O=C(c1ccc2c(=O)n3c(nc2c1)CCCC3)N1CCC(Cc2ccccc2)CC1` displayed an RP-LC retention time of 878 s.

In the case of `O=C(NCCc1cccs1)C1CN(S(=O)(=O)C2CC2)CC12CCCCC2` (stereo not given), the RP-LC retention time came to 934 s.

Take `CCOc1ccc(CC(=O)NCCc2nc3cccnc3n2C)cc1`: the RP-LC retention time was determined as 733 s.

As to `CCc1noc(NC(C)=O)c1-c1ccc(OC)c(S(=O)(=O)Nc2cccc(OC)c2)c1`, the RP-LC retention time was determined as 754 s.

In the case of `CCOC(=O)C(C)NC(=O)NCC(=O)N1CCc2ccccc21` (stereo not given), the RP-LC retention time was 696 s.

In turn, `O=C1CCCc2nc(N3CCN(c4ccccn4)CC3)nc(Nc3ccccc3)c21` yielded an RP-LC retention time of 735 s.

In turn, `Cc1ccc(S(=O)(=O)N2CCCC(CCC(=O)O)C2)cc1` (stereo not given) gave an RP-LC retention time of 812 s.

The compound `O=C(CCc1csc(NC(=O)c2ccc[nH]c2=O)n1)NCC1CCCO1` (stereo not given) showed an RP-LC retention time of 573 s.

For `COc1ccc(Cl)cc1Nc1nc(N)nc(CN2CCN(c3ccccn3)CC2)n1`, the RP-LC retention time came to 612 s.

The compound `Cn1c(=O)n(CCN2CCCCC2)c(=O)c2c1nc1n2CCCN1C1CCCCC1` displayed an RP-LC retention time of 681 s.

On to `Cc1ccccc1Cn1c(CN2CCC(C(=O)NC(C)Cc3ccco3)CC2)cc2ccccc21` (stereo not given), for which the RP-LC retention time amounted to 833 s.

The compound `Cc1ccc2c(c1)N(S(C)(=O)=O)CCC(C(=O)Nc1cccc(Cl)c1C)O2` (stereo not given) gave an RP-LC retention time of 1020 s.

`CN(C)C(=O)c1cc2c(s1)CCC(C(=O)NC1CCCCCC1)C2` (stereo not given) returned an RP-LC retention time of 751 s.

On to `COc1cccc(-n2nc(-c3nc(-c4ccccn4)no3)c3ccccc3c2=O)c1`, for which the RP-LC retention time is 1020 s.

For `Cc1noc(C2CCCCN2C(=O)c2ccoc2)n1` (stereo not given), the RP-LC retention time is 670 s.

For the compound `CN(C)CCCNc1oc(-c2ccccc2F)nc1S(=O)(=O)c1ccccc1`, the RP-LC retention time was 666 s.

On to `O=C(Cn1nc(N2CCCC2)c2ccccc2c1=O)NCc1ccccc1`, for which the RP-LC retention time was 837 s.

Take `COCC1CN(C2CCC2)CC12CCN(C(=O)c1sccc1C)CC2` (stereo not given): the RP-LC retention time was determined as 597 s.

`COC(=O)c1cc(S(=O)(=O)N2CCCC2C(=O)Nc2cc(C)ccc2C)cn1C` (stereo not given) yielded an RP-LC retention time of 901 s.

`Cc1cc(C(=O)N2CC3CC(C2)c2cccc(=O)n2C3)c(C)o1` (stereo not given) returned an RP-LC retention time of 590 s.

As to `Cc1ccc(Nc2c(-c3ccccc3)nc3ncccn23)c(C)c1`, the RP-LC retention time was determined as 786 s.

As for `Cc1ccc2oc(C(=O)Nc3ccnn3Cc3ccccc3)cc(=O)c2c1`, the RP-LC retention time amounted to 835 s.

`Cn1cc(CCNS(=O)(=O)c2ccccc2Br)c2cccnc21` registered an RP-LC retention time of 741 s.

Regarding `Cc1ccc(CNC(=O)C2(C)Cn3nc(C(=O)NCCN4CCCC4)cc3C(=O)N2C)cc1` (stereo not given), the RP-LC retention time worked out at 608 s.

As to `CCOC(=O)CC(=O)CSc1ncnc2c1cnn2-c1ccc(F)cc1`, the RP-LC retention time was found to be 985 s.

`Cc1ccc(S(=O)(=O)NNC(=O)C23CCC(CC2)C3)cc1` yielded an RP-LC retention time of 873 s.

In the case of `N#Cc1c(N)nc(SCc2csc(-c3ccc(Cl)cc3)n2)c(C#N)c1-c1ccc(OCCO)cc1`, the RP-LC retention time is 1130 s.

The compound `CCCCC(C)C(=O)NC1CCN(C2=NS(=O)(=O)C(c3ccc(C)cc3)=C2C)CC1` (stereo not given) showed an RP-LC retention time of 935 s.

In turn, `O=C(CN1C(=O)COc2ccc(C(=O)N3CCCCC3)cc21)NC1CCCCCC1` registered an RP-LC retention time of 782 s.

The compound `Cc1ccc(-c2cc(C(=O)N3CCC(NC(=O)Cc4cccs4)CC3)[nH]n2)c(C)c1` gave an RP-LC retention time of 776 s.

The compound `CC1CC(=O)c2cnc(N3CCN(c4ccccn4)CC3)nc2C1` (stereo not given) came in with an RP-LC retention time of 611 s.

Regarding `Cc1ccc(NS(=O)(=O)c2cc3n(c2)CCN(C)C3=O)cc1F`, the RP-LC retention time came out at 716 s.

For the compound `O=C(NC1CCS(=O)(=O)C1)c1ccc(N2CCCC2)nn1` (stereo not given), the RP-LC retention time amounted to 520 s.

In turn, `Cc1nn2c(ncc3c(=O)n(-c4nccs4)ccc32)c1-c1ccccc1` showed an RP-LC retention time of 1170 s.

In turn, `CC(C)n1cc(C2=CCN(C(=O)NC3CCCCC3)CC2)c2cccnc21` displayed an RP-LC retention time of 945 s.

On to `COc1ccc(C(F)(F)F)cc1NC(=O)CCCSc1ccc(NC(C)=O)nn1`, for which the RP-LC retention time was 785 s.

Compound `COc1ccc(NC(=O)Cn2nc3c4ccccc4ncn3c2=O)cc1Cl` came in with an RP-LC retention time of 674 s.

`CCN1C(=O)c2cccnc2Sc2cc(CNC(=O)c3ccc(OC)cc3OC)ccc21` returned an RP-LC retention time of 784 s.

`Cc1ccc(S(=O)(=O)N2CCC(CCNC(=O)NC(C)C)CC2)cc1` displayed an RP-LC retention time of 796 s.

On to `Cc1ccc(NC(=O)N2c3ccccc3CC2c2nc(C3CC3)no2)c(C)c1` (stereo not given), for which the RP-LC retention time amounted to 1080 s.

Take `Cc1ccc(Nc2nc(C(=O)N3CCN(S(C)(=O)=O)CC3)cs2)c(C)c1`: the RP-LC retention time was 752 s.

Compound `CCCn1cc(CCNC(=O)c2cc3ccccc3[nH]2)c2cccnc21` gave an RP-LC retention time of 794 s.

Regarding `CC(C)CNC(=O)C1CCN(c2nc3ccc(-c4cccnc4)nc3s2)CC1`, the RP-LC retention time came to 640 s.

In the case of `Cc1cc(N2CCN(C(=O)c3ccccc3F)CC2)nc(N2CCOCC2)n1`, the RP-LC retention time came to 608 s.

The compound `O=C(CN1CCN(C(=O)Nc2ccc(Cl)cc2)CC1=O)NC1CCCC1` yielded an RP-LC retention time of 690 s.

`CCOc1ccc(-c2cc(C(F)(F)F)nn2-c2nc(-c3ccc(F)cc3)cs2)cc1` had an RP-LC retention time of 882 s.

`CCC(NC(=O)C1CCN(c2nnc(-c3ccc(OC)cc3)o2)CC1)c1cccs1` (stereo not given) showed an RP-LC retention time of 863 s.

As to `CCCn1cc(CCNC(=O)Nc2cccc(Cl)c2)c2cccnc21`, the RP-LC retention time was found to be 828 s.

The compound `O=C(c1ccc(-c2csc(C3CC3)n2)cc1)N1CCCCCC1` registered an RP-LC retention time of 1070 s.

For the compound `COc1ccc(-c2nc(CCNS(=O)(=O)c3ccc(Cl)s3)cs2)cc1OC`, the RP-LC retention time is 918 s.

For `CN(Cc1ccccc1)C(=O)C1CCN(S(=O)(=O)c2ccc3c(c2)sc(=O)n3C)CC1`, the RP-LC retention time was determined as 852 s.

With `O=C(Cn1cccc1-c1nc(-c2ccc3c(c2)OCO3)no1)Nc1cc(F)ccc1F`, the RP-LC retention time came out at 1000 s.

In the case of `O=C(NC1CCCCCC1)C1CCCN(c2nn3c(=O)c4c(nc3s2)CCCC4)C1` (stereo not given), the RP-LC retention time turned out to be 838 s.

Compound `Cc1ccc(Cl)cc1N1CCN(c2ccc3cc(S(=O)(=O)N4CCCC4)ccc3n2)CC1` showed an RP-LC retention time of 1240 s.

As for `Cc1[nH]c(=O)[nH]c(=O)c1S(=O)(=O)N1CCCC1`, the RP-LC retention time stood at 583 s.

With `CCN(CCCNC(=O)C1CCN(c2ncnc3c2oc2ccccc23)CC1)c1ccccc1`, the RP-LC retention time is 611 s.

`Cc1csc(-c2cc(S(=O)(=O)N3CCN(C4CCCCC4)CC3)c(C)s2)n1` had an RP-LC retention time of 714 s.

`CN1CCN(C(=O)c2cc3c(s2)CCN(C(=O)c2ccc(Cl)cc2)C3)CC1` gave an RP-LC retention time of 627 s.

As to `COc1ccc(CNC(=O)c2cc3c(-c4cccs4)nn(-c4ccccc4)c3n2C)cc1`, the RP-LC retention time amounted to 1120 s.

`CCN1C(=O)c2cccnc2Sc2cc(C(=O)N3CCCC3)ccc21`: the RP-LC retention time was determined as 684 s.

With `COc1cccc(CNC(=O)N2CCc3nc[nH]c3C2)c1`, the RP-LC retention time was 625 s.

As to `Cc1ccc(NC(=O)Cn2c(N3CCCC3)nc(C)cc2=O)c(C)c1`, the RP-LC retention time came out at 669 s.

Take `COc1ccc(N2CCN(c3cc(SCC(=O)Nc4cccc(Cl)c4F)ncn3)CC2)cc1`: the RP-LC retention time is 1190 s.

`CCOC(=O)c1noc2ncnc(NCCCN3CCN(c4cccc(C)c4)C(C)C3)c12` (stereo not given) gave an RP-LC retention time of 619 s.

`C[C@@H](NC(=O)c1ccc(Cl)cc1)C(=O)NCc1cscn1` gave an RP-LC retention time of 673 s.

For the compound `O=C1NCCCn2cc(S(=O)(=O)Nc3ccc(Oc4ccccc4)cc3)cc21`, the RP-LC retention time was 768 s.

In the case of `COCCN1C(=O)c2ccccc2C(C(=O)NCc2ccc(Cl)cc2)C12CCCC2` (stereo not given), the RP-LC retention time was found to be 925 s.

The values are drawn from the METLIN SMRT retention time set (Domingo-Almenara et al. 2019).
